From US20160084841A1, “Method for Predicting Clinical Effect of Immunotherapy” (INTERNATIONAL INSTITUTE OF CANCER IMMUNOLOGY, INC., priority 2013, published 2016)

How the values were obtained:
[1] = tested on: recurrent malignant glioblastoma (GBM) patients; assay: Anti-WT1-235 peptide IgG antibody titer (ELISA) in serum of GBM patients given WT1235 peptide vaccine; assay type: in vivo, human; details: 2 months and 3 months after the start of administration compared with before, ELISA antigen WT1-235 peptide, FIG. 1
Protocol: 1-1 WT1 peptide immunotherapy was carried out in 72 GBM patients using WT1235 peptide (WT1-CTL peptide (modified mp235-243) (SEQ ID NO: 3)) as a WT1 peptide vaccine. […]
(§1) To a 96-well reaction plate supplied with Peptide Coating Kit (Takara Bio Inc.) having amino groups attached to the bottom surface of the wells, a solution (4 μg/mL) of the WT1-235 peptide dissolved in a reaction buffer supplied with Peptide Coating Kit was added at 50 μL/well. […] The reaction was terminated with 1 N HCl, and the absorbance at 450 nm was then measured using a microplate reader (CORONA […] MTP-310Lab).
The comparison between two groups was conducted using the Mann-Whitney test. […] The anti-WT1 antigen peptide antibody titer was measured using the serum negative for the anti-WT1 antigen peptide antibody (patient's serum before the start of WT1 peptide immunotherapy) and the average value plus twice the standard deviation=0.045. […]

[2] = tested on: malignant thymic carcinoma patient; assay: Anti-WT1332 / anti-WT1235 IgG antibody titer (ELISA) in serum of a patient given WT1235 peptide vaccine; assay type: in vivo, human
Excerpt: (§2) From one malignant glioblastoma patient given WT1332 peptide vaccine (SEQ ID NO: 6), a serum sample was obtained before the start of administration of the vaccine, at 4 weeks after the start of administration, and at 1 year and 2 months after the start of administration. From one malignant thymic carcinoma patient given WT1235 peptide vaccine (WT1-CTL peptide (modified mp235-243) (SEQ ID NO: 3)) alone, a serum sample was obtained as a negative control in the same way as above. Each serum sample was stored at −20° C. until assay.
The GST-WT1 frag1 protein solution (10 ng/μL) was added at 100 μL/well to a 96-well plate for ELISA. The plate was left overnight at 37° C. to immobilize the antigen thereon. After washing with 0.05% TBST, blocking was performed by shaking at room temperature for 2 hours using a blocking buffer (1% gelatin/0.05% TBST). Then, the serum diluted 100-fold with 0.05% TBST was added thereto at 100 μL/well and reacted overnight at 4° C. The plate was reacted with a peroxidase-labeled goat anti-human IgG antibody (Santa Cruz Biotechnology, Inc.) as a secondary antibody at room temperature for 2 hours. Then, a color was developed using a TMB kit (KPL, Kirkegaard & Perry Laboratories, Inc.). The reaction was terminated with 1 N HCl, and the absorbance at 450 nm was then measured using a microplate reader (CORONA […] MTP-32). […]

[3] = tested on: anti-WT1332 peptide IgG antibody; assay: ELISA using variant WT1 antigen peptide as immobilized antigen to assay anti-WT1332 peptide IgG antibody; assay type: binding, human; details: serum diluted 100-fold; titer increased in WT1332-immunized patient, not in unimmunized patient; FIG. 18
Protocol: A vector expressing WT1-frg3 (SEQ ID NO: 57) as a GST-tagged protein was constructed using a pGEX-5X-3 vector (GE Healthcare Japan Corp.). The prepared vector was transferred to competent cells DH5α by heat shock. The vector-transferred E. coli was cultured. At the point in time when the OD600 value became 0.4 to 0.6, isopropyl-β-D-thiogalactoside (IPTG) was added at a final concentration of 1 mM to the medium to induce protein expression. The cells were further cultured for 3 hours. The bacterial cells were collected by centrifugation and then lysed in an SDS sample buffer (0.125 M Tris-HCl, 0.1 M DTT, 4% SDS, 10% sucrose, and bromophenol blue, pH 6.8). This lysate was fractionated on the basis of molecular weights by SDS-PAGE using a disc-type electrophoresis apparatus NA-1800 (Nihon Eido Corp.). A portion of each fraction thus collected by SDS-PAGE was stained with CBB, and a fraction containing WT1 was recovered. The purified protein was dissolved in an immobilizing buffer for ELISA (10 mM NaCO3, 30 mM NaHCO3, and 0.02% NaN3, pH 9.6) and used as an antigen for ELISA.
The GST-WT1 frag1 protein solution (10 ng/μL) was added at 100 μL/well to a 96-well plate for ELISA. The plate was left overnight at 37° C. to immobilize the antigen thereon. After washing with 0.05% TBST, blocking was performed by shaking at room temperature for 2 hours using a blocking buffer (1% gelatin/0.05% TBST). Then, the serum diluted 100-fold with 0.05% TBST was added thereto at 100 μL/well and reacted overnight at 4° C. […] The reaction was terminated with 1 N HCl, and the absorbance at 450 nm was then measured using a microplate reader (CORONA […] MTP-32).
as §1, with “groups (—NH2)” for “groups”, “WT1” for “WT1-235”

[4] = tested on: anti-WT1235 peptide IgG antibody; assay: ELISA using variant WT1 antigen peptide as immobilized antigen to assay anti-WT1235 peptide IgG antibody; assay type: binding, human; details: serum of thymic carcinoma patient given WT1235 peptide; increase in titer detected; FIG. 19
Protocol: WK235-243 (SEQ ID NO: 62) and WT237-243 (SEQ ID NO: 63) were synthesized by GL Biochem (Shanghai) Corporation Ltd. WT1-frg2 (SEQ ID NO: 61) was prepared in the same way as in the aforementioned WT1-frg3 (SEQ ID NO: 57).
The measurement of the antibody titer using WT1-frg2 (SEQ ID NO: 61) was performed in the same way as in the aforementioned WT1-frg3 (SEQ ID NO: 57). The measurement of the antibody titer using WK235-243 (SEQ ID NO: 62) or WT237-243 (SEQ ID NO: 63) was performed in the same way as in the aforementioned WT332-347 (SEQ ID NO: 58), etc.

[5] = tested on: malignant glioblastoma patient; assay: Anti-WT1332 IgG antibody titer (ELISA) in serum of a patient given WT1332 peptide vaccine; assay type: in vivo, human; details: one patient immunized with WT1332 peptide, FIG. 18
Excerpt: as §2
[…] The plate was left overnight at 37° C. to immobilize the antigen thereon. After washing with 0.05% TBST, blocking was performed by shaking at room temperature for 2 hours using a blocking buffer (1% gelatin/0.05% TBST). […] The reaction was terminated with 1 N HCl, and the absorbance at 450 nm was then measured using a microplate reader (CORONA […] MTP-32).
as §1, with “groups (—NH2)” for “groups”, “WT1” for “WT1-235”

CYTWNQMNL (Montanide ISA51 emulsion) [WT1235 peptide vaccine, emulsion with Montanide ISA51]
anti-WT1-235 peptide IgG antibody titer after the start of administration [1]: significantly increased
anti-WT1332 IgG antibody titer after immunization ([2]; negative control: one patient immunized with WT1235 peptide alone (unimmunized with WT1332 peptide), ELISA antigen WT1-frg3): not increased
anti-WT1235 IgG antibody titer ([2]; one thymic carcinoma patient, serum at 4 weeks and 7 months after start of administration, ELISA antigen WT1-frg2, FIG. 19): increase in anti-WT1235 IgG antibody titer was detected

KRYFKLS [WT332-338]
ability as ELISA antigen to measure anti-WT1332 IgG antibody level in patient's serum [3]: could measure an anti-WT1332 IgG antibody level in patient's serum

CMTWNQMNK [WK235-243]
ability as ELISA antigen to measure anti-WT1235 IgG antibody level in patient's serum [4]: could measure an anti-WT1235 IgG antibody level in patient's serum

KRYFKLSHLQMHSRKH [WT332-347]
ability as ELISA antigen to measure anti-WT1332 IgG antibody level in patient's serum [3]: could measure an anti-WT1332 IgG antibody level in patient's serum

YFKLSHLQM [WT334-342]
ability as ELISA antigen to measure anti-WT1332 IgG antibody level in patient's serum [3]: could measure an anti-WT1332 IgG antibody level in patient's serum

TWNQMNL [WT237-243]
ability as ELISA antigen to measure anti-WT1235 IgG antibody level in patient's serum [4]: could measure an anti-WT1235 IgG antibody level in patient's serum

KRYFKLSHLQMHSRKH [WT1332 peptide]
anti-WT1332 IgG antibody titer after immunization ([5]; ELISA antigen WT1-frg3): increased
anti-WT1332 IgG antibody titer after immunization ([5]; ELISA antigen WT332-347, WT334-342 or WT332-338): increased
